Laboratory results: US20240409496A1, “SPERMINE DERIVATIVES AS HEPARIN ANTIDOTES” (CONSEJO SUPERIOR DE INVESTIGACIONES CIENTÍFICAS (CSIC), priority 2021, published 2024)

Tests used:
[1] = Surface Plasmon Resonance (SPR) on heparin-functionalized chips; type: binding
Description: Surface Plasmon Resonance (SPR): Affinity experiments between inhibitors and heparin were performed on an Open SPR™(Nicoya). All measurements were performed at 25° C. using a working buffer of 25 mM Tris at pH 7.5. Biotin-loaded sensor chips (NICOYA) were further functionalized with streptavidine (50 μg/mL) and later with biotin-heparin (50 μg/mL). Binding experiments to heparin were performed by injecting inhibitors at desired concentrations and at a rate of 40 μL/min. Between binding assays, the surface was regenerated by exposure to an injection of 10 mM HCl. Fitting has been performed by Trace Drawer software using a ‘one-to-one two-state algorithm’, which considers a 1:1 binding with a further equilibrium like a conformational change. Results obtained from three independent experiments at three different concentrations of the ligands were fit globally to render the corresponding on/off rate constants and the apparent dissociation constants (KD^app Table 1, as shown below).
Binding of the spermine derivatives to the heparin target. Surface Plasmon Resonance (SPR) on heparin-functionalized chips were used to determine the apparent dissociation constant of selected molecules (KD^app, Table 1).

[2] = test system: [FXa-Hep-ATIII] complex; test: Blood coagulation factor in vitro enzymatic assay (FXa/ATIII/Hep, chromogenic peptide hydrolysis); type: biochemical, human; details: for in vitro potency as Hep antidote (recovery of FXa activity), rank order: 1 μM of each binder, Hep 0.1 IU/mL, FIG. 2B; for activity as Hep antidote in the enzymatic assay compared with ciraparantag: percent hydrolysis at 30 min, FIG. 2C
Description: Blood coagulation factor in vitro enzymatic assays: Recombinant antithrombin Ill and coagulation Factor Xa were obtained from the Berichrom Heparin test, supplied by SIEMENS. Following the indications of the test kit, stock solutions were prepared as follows: Human antithrombin III (1 IU/mL), Factor Xa reagent (0.4 μg/mL, human plasma fraction with the additives Tris, sodium chloride and EDTA) and a chromogenic substrate specific for factor Xa (4 mM of Z-D-Leu-Gly-ArgANBA-methyl amide). On the other hand, 4-nitroaniline (Sigma Aldrich) was added to the substrate solution at a concentration of 1.6 mM and was used as internal standard to quantify the hydrolysis of the chromogenic substrate. Heparin (sodium salt from porcine intestinal mucosa, polydisperse, from 6000 to 30000 Daltons) was purchased from Sigma-Aldrich. All compounds were dissolved in mili-Q water at the desired stock concentrations prior to start the assays and kept at 4° C. Various concentrations of the ligand, heparin (0.1 IU/mL), human antithrombin Ill solution (3.5 μL) and Factor Xa reagent solution (35 μL) were added in order to an Eppendorf and brought to a total volume of 145 μL. Then, 20 μL of Reagent Substrate solution was added to start the experiment and the mixture was vigorously shaken at 25° C. 20 μL samples were taken at minutes 5/10/15/20/30/50/80/120, diluted with 40 μL of acetic acid (20% v/v), and injected in the analytical HPLC. The gradient ranged from 5% ACN (0.1% formic acid) in water (0.1% formic acid) to 100% ACN in 24 minutes using a 15×4.6 mm KROMAPHASE C18 5.0 μm column (retention time of cleaved chromophore 9.1 min, retention time of chromogenic substrate 13.9 min, retention time of 4-nitroaniline 15.4 min). Concentrations of reagents have been adjusted compared with previous studies with the intention to slow down the total exhaustion of peptide substrate. In this way the activity can be more carefully modulated and any change is easier to detect. FXa/ATIII activity was represented as percent of hydrolysis, which was calculated from the normalized area of cleaved peptide at 405 nm at each corresponding time point. Experiment carried out in absence of heparin was considered as maximum of activity while experiment with heparin and no ligand was considered as negative control (maximum inhibition of FXa by heparin). Concentration of heparin was selected for the measurement to render a significant inhibition within experimental time, while allowing the reaction to proceed.
In vitro inhibition of heparin activity. The effect of the binders as Hep antidotes can be tested in vitro using an enzymatic reaction related to the blood coagulation process (FIG. 2A). This test employs human recombinant coagulation factor Xa (FXa) and antithrombin III (ATIII), with the synthetic peptide Z-D-LGR-N(Me)ANBA as the substrate of the FXa protease to mimic the prothrombin to thrombin transformation that triggers blood coagulation. Heparin forms a ternary complex with ATIII and FXa with a low hydrolytic activity, as a model for the anticoagulation effect of Hep. The addition of an efficient Hep binder dissociates the [FXa-Hep-ATIII] complex, thus releasing the active form of FXa that cleaves the substrate. The peptide hydrolysis can be readily monitored by analytical HPLC thanks to the ANBA chromophore, as an accurate measurement of the reaction kinetics.
In parallel experiments, the addition of equal concentration (1 μM) of each of the binders produces a different level of recovery of the FXa activity. […] Actually, several selected molecules derived from spermine were tested in the enzymatic assay (FIG. 2C) most of them showing activity in the reversal of the heparin action.

[3] = test system: freshly extracted mouse blood with Hep; test: Ex vivo blood coagulation assay; details: for reversal of anticoagulant effect of Hep in mouse blood (clot formation): Hep 130 μM, various ligand concentrations, 15 minutes, FIG. 3A
Description: Ex vivo blood coagulation assays: Freshly collected mouse blood was collected and directly used without further treatment. 300 μL aliquots were prepared. To them, Hep (130 μM), and various concentration of ligand (3AC or 3FF) were added. The samples of the different conditions were added to an Eppendorf tube and a picture was taken after 15 minutes. The clot formation was confirmed by turning around the Eppendorf vials.
Reversing the anticoagulant activity of heparin: In order to check the efficacy of the antidotes in a more representative environment, 3FF and 3AC were tested in real blood coagulation assays. Thus, it has been monitored the coagulation of freshly extracted mouse blood in the absence or presence of Hep, and upon addition of different concentrations of 3FF and 3AC.

[4] = test system: heparinized mice; test: In vivo tail transection assay with mice; parameters: species or system mouse; details: for reversal of Hep activity in vivo (bleeding of heparinized mice): Hep 100 IU/kg i.v. followed by 2.2 or 4.4 mg/kg, blood collected 10 minutes, FIG. 3B; for blood loss of heparinized mice at the highest doses: Hep 100 IU/kg, highest dose (4.4 mg/kg)
Description: In vivo tail transection assays with mice: Eight-weeks old CD-1 male mice (Janvier-Labs) were used for the study. Animals were housed under a 12 h light: dark cycle in an environmentally controlled room and free access to water and food. Mice were randomly assigned into 6 groups (n=6 for each group). Animals were anesthetized by i.p. injections of 0.465 mg/kg xylazine (Rompun, Bayer DVM) and 1.395 mg/kg ketamine (Imalgene 100, Merial Laboratorios). After anesthetizing them, different solutions were injected intravenously according to the assigned group: Saline group (only saline was given), Hep group (Hep injection, 100 IU/kg), 3AC (two groups, Hep injection followed by injection of 3AC at 2.2 mg/kg or 4.4 mg/kg) and 3FF (two groups, Hep injection followed by injection of 3FF at 2.2 mg/kg or 4.4 mg/kg). Two additional control groups (n=3) were included in which only the ligand (3AC or 3FF) at the highest dose (4.4 mg/kg) was injected. At 5 minutes after injections, tails were transected at 5 mm from the tip and immediately inserted in a tube containing 1 ml of saline buffer immersed in a water bath at 37° C., where the blood draining out of the wound was collected for 10 minutes. The blood draining out from the wound was collected in each tube. Tails were let bleed during 10 minutes. The total blood volume in each tube was quantified by spectrophotometry (absorbance at 414 nm) from a standard curve that was constructed with known volumes of blood hemoglobin concentration and corresponding absorbance value. Statistical analysis of the data was done with Kaleida Graph 4.5.4 using ANOVA.
3FF and 3AC were tested in an in vivo coagulation model. It was thus performed the tail transection assay with mice after consecutive injection of Hep, and the drugs at two different doses each (FIG. 3B). The control groups injecting saline or Hep, and those corresponding to just the drugs were also included.

| Structure (SMILES) | affinity to Hep compared with ciraparantag [1] | in vitro potency as Hep antidote (recovery of FXa activity), rank order [2] | activity as Hep antidote in the enzymatic assay compared with ciraparantag [2] | reversal of anticoagulant effect of Hep in mouse blood (clot formation) [3] | ex vivo antidote quality, 3AC compared with 3FF ([3]; equal doses, qualitative) | reversal of Hep activity in vivo (bleeding of heparinized mice) [4] | blood loss of heparinized mice at the highest doses [4] | in vivo reversal potency, 3AC compared with 3FF ([4]; tail transection, mice) |
| --- | --- | --- | --- | --- | --- | --- | --- | --- |
| Oc1ccccc1CNCCCNCCCCNCCCNCc1ccc2c(c1)Cc1ccccc1-2 [Compound 3AC, 2-(16-(9H-fluoren-2-yl)-2,6,11,15-tetraazahexadecyl)phenol] | higher affinity to Hep than ciraparantag | <3AC | even more potent | able to revert the anticoagulant effect of Hep in a dose-response manner | better antidote than 3FF | efficient antidotes of Hep also in vivo, strongly reducing the bleeding of heparinized mice | reversed to values very similar to those of the control group injected with saline | more potent reversal agent than 3FF |
| Oc1ccccc1CNCCCNCCCCNCCCNCc1c(O)ccc2ccccc12 [Compound 3AF, 1-(16-(2-hydroxyphenyl)-2,6,11,15-tetraazahexadecyl)naphthalen-2-ol] | – | 3AF (open circles)<3FF | – | – | – | – | – | – |
| Oc1ccccc1CNCCCNCCCCNCCCNCc1ccc2ccccc2c1O [Compound 3AG, 2-(16-(2-hydroxyphenyl)-2,6,11,15-tetraazahexadecyl)naphthalen-1-ol] | – | 3AG (rhombuses)<3AF | – | – | – | – | – | – |
| Oc1ccc2ccccc2c1CNCCCNCCCCNCCCNCc1c(O)ccc2ccccc12 [Compound 3FF, 1,1′-(2,6,11,15-tetraazahexadecane-1,16-diyl)bis(naphthalen-2-ol)] | higher affinity to Hep than ciraparantag | 3FF (inverted solid triangles)<3AC | comparable with the drug ciraparantag | able to revert the anticoagulant effect of Hep in a dose-response manner | – | efficient antidotes of Hep also in vivo, strongly reducing the bleeding of heparinized mice | reversed to values very similar to those of the control group injected with saline | – |
| Oc1ccccc1CNCCCNCCCCNCCCNCc1cccc2ccccc12 [Compound 3AL, 2-(16-(naphthalen-1-yl)-2,6,11,15-tetraazahexadecyl)phenol, reference compound] | – | 3AL (X symbols)≤3AG | – | – | – | – | – | – |
